{"source": "patent USRE39616E1", "about": "“Aminoindan derivatives” (priority 1996, dated 2007)", "key": {"[1]": {"test_system": "Closed Head Injury (CHI) in Mice", "experiment": "Closed Head Injury (CHI) in mice: motor function, neurological severity score (NSS)", "assay_type": "in vivo", "settings": "difference from NSS at 1 hr"}, "[2]": {"test_system": "Middle Cerebral Artery Occlusion (MCA-O) in Male Wistar Rats", "settings": "rat, in vivo"}, "[3]": {"target": "T1, MAO-B (Rattus norvegicus, UniProt P19643)", "T1 sequence (P19643 1-520)": "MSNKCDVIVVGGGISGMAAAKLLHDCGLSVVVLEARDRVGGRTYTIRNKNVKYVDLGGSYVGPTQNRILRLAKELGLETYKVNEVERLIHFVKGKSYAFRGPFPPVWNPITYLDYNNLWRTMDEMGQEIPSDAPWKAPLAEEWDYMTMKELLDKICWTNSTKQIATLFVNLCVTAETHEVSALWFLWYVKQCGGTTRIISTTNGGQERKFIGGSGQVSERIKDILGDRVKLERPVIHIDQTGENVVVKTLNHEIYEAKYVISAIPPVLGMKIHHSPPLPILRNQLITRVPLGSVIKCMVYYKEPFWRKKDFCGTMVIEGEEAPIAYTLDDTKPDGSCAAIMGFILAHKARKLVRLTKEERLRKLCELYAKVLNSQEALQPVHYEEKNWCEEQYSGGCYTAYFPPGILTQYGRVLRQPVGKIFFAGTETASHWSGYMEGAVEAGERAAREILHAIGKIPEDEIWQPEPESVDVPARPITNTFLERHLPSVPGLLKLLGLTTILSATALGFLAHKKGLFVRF", "experiment": "Inhibition of MAO activity in vitro, PEA as substrate", "assay_type": "biochemical", "design": "The MAO enzyme source was a homogenate of rat brain in 0.3M sucrose; from tissue; host or cells: rat brain homogenate, 600 g supernatant", "settings": "MAO-B Inhibition In vitro IC50, rat brain homogenate", "method": "(§1) Substrate concentrations used were 50 μM (PEA) and 1 mM (5-HT)."}, "[4]": {"target": "T2, MAO-A (Rattus norvegicus, UniProt P21396)", "T2 sequence (P21396 1-526)": "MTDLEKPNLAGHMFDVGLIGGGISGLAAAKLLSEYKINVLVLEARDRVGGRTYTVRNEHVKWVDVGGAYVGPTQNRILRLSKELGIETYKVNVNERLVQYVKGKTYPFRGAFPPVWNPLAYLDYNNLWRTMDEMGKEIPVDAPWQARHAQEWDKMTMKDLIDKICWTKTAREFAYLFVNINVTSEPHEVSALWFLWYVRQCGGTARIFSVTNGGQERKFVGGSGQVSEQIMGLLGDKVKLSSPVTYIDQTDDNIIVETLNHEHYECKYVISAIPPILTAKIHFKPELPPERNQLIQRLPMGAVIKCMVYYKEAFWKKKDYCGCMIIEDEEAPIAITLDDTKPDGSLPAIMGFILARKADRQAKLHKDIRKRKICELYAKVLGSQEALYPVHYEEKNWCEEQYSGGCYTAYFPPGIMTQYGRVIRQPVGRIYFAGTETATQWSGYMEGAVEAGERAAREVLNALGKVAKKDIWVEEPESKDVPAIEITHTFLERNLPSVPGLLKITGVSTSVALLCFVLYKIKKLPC", "experiment": "in vivo", "assay_type": "in vivo, rats", "design": "animals were sacrificed and MAO levels determined in the brain, liver and intestines; from tissue; host or cells: rat brain, liver and intestine", "settings": "for % MAO-A inhibition: HCl", "method": "as §1\nMale Sabra mice, weighing 45-50 g were injected with test compound solutions (prepared in 0.9% saline). Each dose was administered to two or three mice. The mice were sacrificed two hours after drug administration or at a time corresponding to the peak AChE inhibition time (see Table 11). The brain and liver were rapidly dissected and stored in appropriate vials on ice. The tissues were weighed, diluted to ½ in sucrose 0.3M and stored at −20° C. before performance of the MAO assay described above. The results given in Table 11 relate to measurements made on brain tissue only.\nExperiments were done in Sprague Dawley male rats. […] At the end of this period animals were sacrificed and MAO levels determined in the brain, liver and intestines."}, "[5]": {"target": "T3, Human erythrocyte acetylcholinesterase (Homo sapiens, UniProt P22303)", "T3 construct": "Human erythrocyte acetylcholinesterase (type XIII, Sigma Israel); purchased Sigma Israel type XIII; host or cells: human erythrocytes", "T3 sequence (P22303 32-617 isoform P22303-2 limits assumed)": "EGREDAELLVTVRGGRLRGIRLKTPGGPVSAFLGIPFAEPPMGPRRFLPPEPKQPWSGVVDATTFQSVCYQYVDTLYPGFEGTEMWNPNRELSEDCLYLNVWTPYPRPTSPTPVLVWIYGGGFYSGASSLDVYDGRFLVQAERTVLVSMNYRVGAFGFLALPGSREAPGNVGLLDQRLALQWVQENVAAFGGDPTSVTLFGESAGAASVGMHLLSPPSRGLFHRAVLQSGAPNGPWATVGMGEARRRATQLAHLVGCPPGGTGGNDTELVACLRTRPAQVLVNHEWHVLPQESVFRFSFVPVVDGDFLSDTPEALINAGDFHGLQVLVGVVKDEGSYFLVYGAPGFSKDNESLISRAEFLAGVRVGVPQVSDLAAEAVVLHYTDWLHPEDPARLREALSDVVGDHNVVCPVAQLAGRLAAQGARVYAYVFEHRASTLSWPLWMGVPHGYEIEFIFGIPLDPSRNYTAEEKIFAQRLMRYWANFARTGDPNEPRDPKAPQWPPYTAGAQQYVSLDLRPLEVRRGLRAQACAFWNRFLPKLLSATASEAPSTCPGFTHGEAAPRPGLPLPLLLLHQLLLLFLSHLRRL", "experiment": "biochemical", "assay_type": "biochemical", "settings": "AChE Inhibition In vitro IC50", "summary_of_the_method": "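Erythrocyte AChE (type XIII) from 1 U/ml stock containing 1% Triton and 0.05% BSA in phosphate buffer pH 8; 0.05 U enzyme preincubated with 3-5 compound concentrations, triplicate, 15 to 60 minutes at 37° C. Percent inhibition calculated against drug-free enzyme.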"}, "[6]": {"target": "T4, whole brain AChE (Mus musculus, UniProt P21836)", "T4 sequence (P21836 32-614)": "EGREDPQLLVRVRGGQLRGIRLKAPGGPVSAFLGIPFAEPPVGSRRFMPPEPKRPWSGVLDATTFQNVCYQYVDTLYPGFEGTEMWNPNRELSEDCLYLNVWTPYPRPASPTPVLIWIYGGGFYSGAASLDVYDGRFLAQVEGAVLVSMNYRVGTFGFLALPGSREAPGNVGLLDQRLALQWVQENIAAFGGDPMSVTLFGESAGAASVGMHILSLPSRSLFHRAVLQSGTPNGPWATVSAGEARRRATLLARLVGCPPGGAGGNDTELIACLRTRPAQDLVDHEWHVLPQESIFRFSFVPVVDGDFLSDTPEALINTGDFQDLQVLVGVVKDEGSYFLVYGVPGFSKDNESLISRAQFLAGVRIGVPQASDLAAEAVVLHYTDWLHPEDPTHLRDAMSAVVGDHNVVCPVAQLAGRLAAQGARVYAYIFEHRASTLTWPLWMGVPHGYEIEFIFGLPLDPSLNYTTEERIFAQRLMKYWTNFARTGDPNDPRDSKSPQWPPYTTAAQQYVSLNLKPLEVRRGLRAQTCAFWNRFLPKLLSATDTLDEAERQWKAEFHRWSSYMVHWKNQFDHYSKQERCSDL", "settings": "for AChE Inhibition Ex vivo ED50 (AC): mice, whole brain, at peak of activity; for AChE Inhibition Time to peak activity t / AChE Inhibition Time to return to 50% of peak t: mouse, in vivo"}, "[7]": {"test_system": "Closed Head Injury (CHI) in Mice", "experiment": "Morris Water Maze Test after closed head injury (reference memory)", "settings": "retested daily for 2 weeks", "description": "Morris Water Maze Test: the water maze consists of a circular aluminium pool, im in diameter and 60 cm in depth, filled with water to a depth of 17.5 cm. The hidden goal platform is a glass vessel (15 cm diameter×16.5 cm height) placed upside down at a fixed location in the pool, 1 cm below the surface of the water. The water temperature is maintained at 24° C. and the pool is always placed in the same position in the room to provide the same extra-maze cues. […] Commencing 24 hr after CHI, mice were retested daily for 2 weeks in 3 trials per day."}, "[8]": {"settings": "6.5 mg/kg sc once 15 min after CHI"}, "[9]": {"settings": "15 mg/kg sc once 15 min after CHI"}, "[10]": {"settings": "46 mg/kg administered 60 min before CHl"}, "[11]": {"settings": "46 mg/kg sc once 15 min after CHI"}}, "note": "Where a name gives a salt, the structure may show the parent alone. Read-outs that look alike come from different tables or passages of the source. Marks after values point to notes of the source that are not given here.", "data": [{"smiles": "C#CCNC1CCc2ccc(OC(=O)N(C)C)cc21", "note": "(centres unmarked) [Compound 24, 6-(N,N-Dimethylcarbamyloxy)-N-propargyl aminoindan mesylate]", "values": [{"measurement": "ΔNSS, 24 hr post-CHl", "setting": "[1]; [8]", "result": "6.31 ± 0.23^m"}, {"measurement": "ΔNSS, 7 days post-CHl", "setting": "[1]; [8]", "result": "8.67 ± 0.41^m"}, {"measurement": "ΔNSS, 14 days post-CHl", "setting": "[1]; [8]", "result": "9.67 ± 0.66^m"}, {"measurement": "Volume infarction Mean ± SD", "setting": "[2]", "result": "152 ± 45", "unit": "mm*"}, {"measurement": "IC50", "setting": "[3]", "result": 750, "unit": "µM"}, {"measurement": "inhibition at 10 mg/kg", "setting": "[4]; po, read-out: % MAO-A inhibition, Brain, po, 10 mg/kg daily for 14 days, rats", "result": 0, "unit": "%"}, {"measurement": "inhibition at 10 mg/kg", "setting": "[4]; po, read-out: % MAO-A inhibition, Intestine, po, 10 mg/kg daily for 14 days, rats", "result": 30, "unit": "%"}, {"measurement": "inhibition at 10 mg/kg", "setting": "[4]; po, read-out: % MAO-A inhibition, Liver, po, 10 mg/kg daily for 14 days, rats", "result": 10, "unit": "%"}, {"measurement": "inhibition at 6 mg/kg", "setting": "[4]; sc, read-out: % MAO-A inhibition, Brain, sc, 6 mg/kg daily for 14 days, rats", "result": 30, "unit": "%"}, {"measurement": "inhibition at 6 mg/kg", "setting": "[4]; sc, read-out: % MAO-A inhibition, Intestine, sc, 6 mg/kg daily for 14 days, rats", "result": 0, "unit": "%"}, {"measurement": "inhibition at 6 mg/kg", "setting": "[4]; sc, read-out: % MAO-A inhibition, Liver, sc, 6 mg/kg daily for 14 days, rats", "result": 0, "unit": "%"}]}, {"smiles": "C#CCN(C)C1CCc2ccc(OC(=O)N(C)C)cc21", "note": "(centres unmarked) [Compound 29]", "values": [{"measurement": "IC50", "setting": "[5]", "result": 8.5, "unit": "µM"}, {"measurement": "AChE Inhibition Ex vivo ED50 (AC)", "setting": "[6]", "result": 53.7, "unit": "µmol/kg"}, {"measurement": "AChE Inhibition Time to peak activity t", "setting": "[6]", "result": 15, "unit": "min"}, {"measurement": "AChE Inhibition Time to return to 50% of peak t", "setting": "[6]", "result": ">60", "unit": "min"}, {"measurement": "IC50", "setting": "[3]", "result": 40, "unit": "µM"}]}, {"smiles": "CCN(C)C(=O)Oc1ccc2c(c1)C(NC)CC2", "note": "(centres unmarked) [Compound 10]", "values": [{"measurement": "ΔNSS, 24 hr post-CHl", "setting": "[1]; [9]", "result": "5.36 ± 0.39"}, {"measurement": "ΔNSS, 7 days post-CHl", "setting": "[1]; [9]", "result": "6.64 ± 0.41^m"}, {"measurement": "ΔNSS, 14 days post-CHl", "setting": "[1]; [9]", "result": "6.73 ± 0.52"}, {"measurement": "AChE Inhibition Ex vivo ED50 (AC)", "setting": "[6]", "result": 34.7, "unit": "µmol/kg"}, {"measurement": "AChE Inhibition Time to peak activity t", "setting": "[6]", "result": "60 to 90", "unit": "min"}, {"measurement": "AChE Inhibition Time to return to 50% of peak t", "setting": "[6]", "result": ">180", "unit": "min"}, {"measurement": "reduction in latency to find the platform, Morris Water Maze, compared to saline treated controls", "setting": "[7]; 15 mg/kg, FIG. 1", "result": "Memory is enhanced"}]}, {"smiles": "CN(C)C(=O)Oc1ccc2c(c1)C(N)CC2", "note": "(centres unmarked) [Compound 1]", "values": [{"measurement": "AChE Inhibition Ex vivo ED50 (AC)", "setting": "[6]", "result": 5.0, "unit": "µmol/kg"}, {"measurement": "AChE Inhibition Time to peak activity t", "setting": "[6]", "result": 30, "unit": "min"}, {"measurement": "AChE Inhibition Time to return to 50% of peak t", "setting": "[6]", "result": ">120", "unit": "min"}, {"measurement": "IC50", "setting": "[3]", "result": "> 1000", "unit": "µM"}]}, {"smiles": "C#CCNC1CCc2cccc(OC(=O)N(C)C)c21", "note": "(centres unmarked) [Compound 27]", "values": [{"measurement": "IC50", "setting": "[5]", "result": 5.72, "unit": "µM"}, {"measurement": "AChE Inhibition Ex vivo ED50 (AC)", "setting": "[6]", "result": 30, "unit": "µmol/kg"}, {"measurement": "AChE Inhibition Time to peak activity t", "setting": "[6]", "result": 15, "unit": "min"}, {"measurement": "AChE Inhibition Time to return to 50% of peak t", "setting": "[6]", "result": ">60", "unit": "min"}, {"measurement": "IC50", "setting": "[3]", "result": "> 1000", "unit": "µM"}]}, {"smiles": "C#CCNC1CCc2ccc(OC(=O)N(C)CC)cc21", "note": "(centres unmarked) [Compound 25, 6-(N-Me, N-Etcarbamyloxy) N-propargyl aminoindan, HCl]", "values": [{"measurement": "IC50", "setting": "[5]", "result": 53, "unit": "µM"}, {"measurement": "ΔNSS, 24 hr post-CHl", "setting": "[1]; [10]", "result": "4.90 ± 0.43"}, {"measurement": "ΔNSS, 7 days post-CHl", "setting": "[1]; [10]", "result": "7.70 ± 0.33^m"}, {"measurement": "ΔNSS, 14 days post-CHl", "setting": "[1]; [10]", "result": "8.80 ± 0.33^m"}, {"measurement": "ΔNSS, 24 hr post-CHl", "setting": "[1]; [11]", "result": "5.00 ± 0.42"}, {"measurement": "ΔNSS, 7 days post-CHl", "setting": "[1]; [11]", "result": "7.42 ± 0.62^m"}, {"measurement": "ΔNSS, 14 days post-CHl", "setting": "[1]; [11]", "result": "9.01 ± 0.69^m"}, {"measurement": "Volume infarction Mean ± SD", "setting": "[2]", "result": "189 ± 54", "unit": "mm*"}, {"measurement": "AChE Inhibition Ex vivo ED50 (AC)", "setting": "[6]", "result": 140.0, "unit": "µmol/kg"}, {"measurement": "AChE Inhibition Time to peak activity t", "setting": "[6]", "result": 60, "unit": "min"}, {"measurement": "AChE Inhibition Time to return to 50% of peak t", "setting": "[6]", "result": ">180", "unit": "min"}, {"measurement": "reduction in latency to find the platform, Morris Water Maze, compared to saline treated controls", "setting": "[7]; 46 mg/kg, FIG. 2", "result": "Memory is enhanced"}, {"measurement": "selectivity of MAO inhibition, brain versus periphery (liver, intestines)", "setting": "[4]; in vivo", "result": "selectivity in inhibiting MAO enzyme sub-types in the brain in preference to the periphery"}, {"measurement": "% MAO-A inhibition", "setting": "[4]; in vivo, po, 50 mg/kg", "result": 25, "unit": "%"}, {"measurement": "% MAO-A inhibition", "setting": "[4]; in vivo, sc, 25 mg/kg", "result": 0, "unit": "%"}]}]}
